PMC6006426, “Effect of tyrosine kinase inhibitors on renal handling of creatinine by MATE1” (Scientific Reports, 2018)
Read-outs that look alike come from different tables or passages of the source.

Legend:
[1] = Clinical plasma pharmacokinetic parameters of TKIs; format: in vivo, human; settings: for Cmax,u: calculated unbound plasma concentration (Cmax x fu) from cited clinical parameters; for Ctrough,u: calculated unbound trough plasma concentration from cited clinical parameters
Text: Table 2 Pharmacokinetic parameters and obtained IC50, Ki, and Kp,uu values of TKIs. | column: Cmax,u (μM) Ctrough,u (μM)

[2] = test system: OCT2 and MATE1; settings: for Prediction of SCr increase, Cmax,u: based on Cmax,u (Kp,uu assumed 1), mean ± S.D. (n = 11 subjects' parameters from ref 10); for Prediction of SCr increase, Cmax,u · Kp,uu: based on Cmax,u with Kp,uu incorporated; for Prediction of SCr increase, Cmax,u · Kp,uu / Prediction of SCr increase, Ctrough,u / Prediction of SCr increase, Ctrough,u · Kp,uu: mean ± S.D. (n = 11); for Prediction of SCr increase, Ctrough,u: based on Ctrough,u (Kp,uu assumed 1); for Prediction of SCr increase, Ctrough,u · Kp,uu: based on Ctrough,u with Kp,uu incorporated
Text: In this model, the intrinsic clearances of OCT2 and MATE1 were assumed to be equal. When MATE1 inhibition was predicted from the Cmax,u of drugs, Kp,uu was assumed to be 1.

[3] = set-up: method as in earlier work; settings: 34-43 (per drug), cited from earlier work; for Ctrough: trough plasma concentration, clinical dosing as in table footnote; for t1/2: clinical half-life; for Cmax: maximum plasma concentration, clinical dosing: crizotinib 250 mg twice a day, gefitinib 250 mg, imatinib 400 mg, pazopanib 800 mg, sorafenib 400 mg, sunitinib 50 mg once a day
[4] = set-up: method as in earlier work; settings: unbound fraction in plasma; 34-43 (per drug); cited from earlier work
[5] = patients treated with crizotinib, n = 38, 95% CI 21.3–[…]; cited from earlier work
[6] = test system: creatinine transporters; settings: cited from earlier work
[7] = Tissue accumulation (Kp,uu) of TKIs in rat kidney slices; format: in vitro ADME; settings: male, Wistar, rat kidney slices (0.3 mm thick), pH 7.4, TKI 1 μM, 120 min, C/M ratio 37 °C / 4 °C, mean ± S.E.M. (n = 3 or 4)
Protocol: Male Wistar rats (180 ± 10 g body weight) were purchased from Japan SLC (Hamamatsu, Japan). Rats were housed three per cage with free access to commercial chow and tap water, and were maintained on a 12 h dark/light cycle in an air-controlled room (temperature, 24.0 ± 1 °C; humidity, 55 ± 5%).
Uptake study by rat kidney slices was carried out as described previously, with slight modifications. Whole kidneys of male rats were sliced (0.3 mm thick) with a microslicer (Zero 1; Dosaka EM, Kyoto, Japan). […] Three or four slices per rat, each weighing 5 to 20 mg, were randomly selected and pre-incubated in a 12-well plate with 2.0 ml/well of oxygenated transport buffer at 37 °C for 5 min. After pre-incubation, the kidney slices were placed in transport buffer containing TKIs to initiate the uptake reaction. After uptake at 37 °C for an appropriate time, each slice was rapidly removed from the transport buffer, washed twice in ice-cold transport buffer, blotted on filter paper and weighed. Non-specific adsorption of each substrate was estimated as the absorption on a slice incubated at 4 °C for 1 min. The tissue accumulation of TKIs was measured by liquid chromatography-tandem mass spectrometry (LC-MS/MS) as described below.
The unbound renal proximal tubule epithelial cell-to-medium concentration ratio (Kp,uu) based on the steady-state uptake at 37 °C and 4 °C was defined according to Eq. (4);4 Kp,uu=C/Mratioss,37 °C/C/Mratioss,4 °C
Kp,uu was calculated by dividing C/Mratioss,37 °C by the mean value of C/Mratioss,4 °C .

[8] = molecular target: T1, MATE2K (Homo sapiens, UniProt Q86VL8); test: Uptake of MPP+ by HEK293/MATE2K and mock cells; format: cell-based
T1 construct: expressed in transfected cells; host or cells: HEK293
Protocol: The uptake experiment was conducted as described previously. HEK293 cells were plated at a density of 1.7 × 10^5 cells/cm^2 on 24-well plates and cultured for two days before uptake assay. The cells were pre-incubated with 0.5 ml of transport medium (TM) (125 mM NaCl, 4.8 mM KCl, 1.2 mM KH2PO4, 1.2 mM CaCl2, 1.2 mM MgSO4, 5.6 mM D-glucose, and 25 mM HEPES, pH 7.4) for an appropriate time at 37 °C. Cells for MATE1 assays were pre-incubated in TM containing 30 mM NH4Cl for 20 min to establish an outwardly directed H^+ gradient; this was done concomitantly with the pre-incubation with TKIs. […] Uptake was terminated by washing the cells three times with 0.5 ml of ice-cold TM, and the cells were solubilized in 0.25 ml of 0.01% (v/v) Triton-X. Radioactivity was measured with a liquid scintillation counter (Hitachi Aloka Medical, Ltd., Tokyo, Japan). […] Uptake was terminated by washing the cells three times with ice-cold TM, and intracellular [^14C]creatinine concentration was determined by the method described above.
Experiments were conducted at least twice, and the results are shown as representative values in individual experiments. Uptake by transporter-expressing cells was expressed as the cell-to-medium (C/M) ratio (μL/mg protein), obtained by dividing the uptake amount by the concentration of substrate in the TM. […]

[9] = molecular target: T2, human MATE1 (Homo sapiens, UniProt Q96FL8); test: Inhibition of [14C]creatinine uptake by HEK293/MATE1 cells; format: cell-based
T2 construct: expressed in transfected cells; host or cells: HEK293
T2 sequence (Q96FL8 1-570): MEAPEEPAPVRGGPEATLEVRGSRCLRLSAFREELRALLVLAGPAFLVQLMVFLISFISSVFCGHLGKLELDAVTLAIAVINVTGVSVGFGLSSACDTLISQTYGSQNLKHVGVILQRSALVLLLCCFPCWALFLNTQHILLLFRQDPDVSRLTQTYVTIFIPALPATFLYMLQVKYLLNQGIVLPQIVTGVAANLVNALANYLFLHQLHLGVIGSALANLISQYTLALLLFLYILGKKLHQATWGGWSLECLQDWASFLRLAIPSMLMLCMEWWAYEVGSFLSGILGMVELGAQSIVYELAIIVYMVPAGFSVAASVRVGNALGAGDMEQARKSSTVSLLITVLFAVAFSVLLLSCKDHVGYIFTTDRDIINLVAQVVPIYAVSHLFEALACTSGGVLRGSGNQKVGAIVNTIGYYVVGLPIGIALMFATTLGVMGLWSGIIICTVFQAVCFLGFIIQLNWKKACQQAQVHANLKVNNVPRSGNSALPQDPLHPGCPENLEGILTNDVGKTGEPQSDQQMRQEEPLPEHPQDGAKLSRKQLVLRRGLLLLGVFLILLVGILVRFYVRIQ
Protocol: (§1) Cells were cultured in Dulbecco’s modified Eagle’s medium (DMEM) supplemented with 10% fetal bovine serum, 100 units/ml penicillin, 100 μg/ml streptomycin, 1 mM pyruvic acid, and 100 μg/ml zeocin for HEK293/OCT2 cells or 400 μg/mL G418 for HEK293/MATE1 and MDCKII/MATE1 cells at 37 °C in a humidified atmosphere of 5% CO2 in air.
The cells were incubated at 37 °C.
Uptake by transporter-expressing cells was expressed as the cell-to-medium (C/M) ratio (μL/mg protein), obtained by dividing the uptake amount by the concentration of substrate in the TM. MATE1- or OCT2-mediated uptake was obtained after subtraction of the uptake by mock cells.
Kinetic parameters for uptake were obtained using the Michaelis-Menten Eq. (2);2 v=Vmax×[C]/Km+[C] where v, Vmax, Km, and [C] are initial uptake rate, maximal uptake rate, Michaelis constant, and substrate concentration, respectively.

[10] = molecular target: T3, human OCT2 (Homo sapiens, UniProt O15244); test: Inhibition of [14C]creatinine uptake by HEK293/OCT2 cells; format: cell-based; settings: for IC50: 37 °C, pre/co-incubation, unit inferred, read-out: IC50 or Ki, OCT2
T3 construct: expressed in transfected cells; host or cells: HEK293
T3 sequence (O15244 1-555): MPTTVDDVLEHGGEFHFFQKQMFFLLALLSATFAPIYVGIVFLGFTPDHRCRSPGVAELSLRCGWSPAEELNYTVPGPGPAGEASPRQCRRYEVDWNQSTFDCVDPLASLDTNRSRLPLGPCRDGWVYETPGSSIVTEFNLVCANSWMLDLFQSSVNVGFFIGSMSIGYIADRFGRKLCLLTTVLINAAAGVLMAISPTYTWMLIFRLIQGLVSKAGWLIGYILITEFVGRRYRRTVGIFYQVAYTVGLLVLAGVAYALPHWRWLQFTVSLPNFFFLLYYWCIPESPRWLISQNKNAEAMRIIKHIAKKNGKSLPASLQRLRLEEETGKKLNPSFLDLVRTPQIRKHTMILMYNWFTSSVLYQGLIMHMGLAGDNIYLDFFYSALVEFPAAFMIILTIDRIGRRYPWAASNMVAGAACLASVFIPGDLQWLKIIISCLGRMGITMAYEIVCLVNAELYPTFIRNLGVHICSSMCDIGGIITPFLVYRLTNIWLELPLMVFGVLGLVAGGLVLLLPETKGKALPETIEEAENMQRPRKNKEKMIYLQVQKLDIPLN
Protocol: as §1
The cells were incubated at 37 °C.
Experiments were conducted at least twice, and the results are shown as representative values in individual experiments. Uptake by transporter-expressing cells was expressed as the cell-to-medium (C/M) ratio (μL/mg protein), obtained by dividing the uptake amount by the concentration of substrate in the TM. MATE1- or OCT2-mediated uptake was obtained after subtraction of the uptake by mock cells.

T1 sequence (Q86VL8 1-566 isoform Q86VL8-3): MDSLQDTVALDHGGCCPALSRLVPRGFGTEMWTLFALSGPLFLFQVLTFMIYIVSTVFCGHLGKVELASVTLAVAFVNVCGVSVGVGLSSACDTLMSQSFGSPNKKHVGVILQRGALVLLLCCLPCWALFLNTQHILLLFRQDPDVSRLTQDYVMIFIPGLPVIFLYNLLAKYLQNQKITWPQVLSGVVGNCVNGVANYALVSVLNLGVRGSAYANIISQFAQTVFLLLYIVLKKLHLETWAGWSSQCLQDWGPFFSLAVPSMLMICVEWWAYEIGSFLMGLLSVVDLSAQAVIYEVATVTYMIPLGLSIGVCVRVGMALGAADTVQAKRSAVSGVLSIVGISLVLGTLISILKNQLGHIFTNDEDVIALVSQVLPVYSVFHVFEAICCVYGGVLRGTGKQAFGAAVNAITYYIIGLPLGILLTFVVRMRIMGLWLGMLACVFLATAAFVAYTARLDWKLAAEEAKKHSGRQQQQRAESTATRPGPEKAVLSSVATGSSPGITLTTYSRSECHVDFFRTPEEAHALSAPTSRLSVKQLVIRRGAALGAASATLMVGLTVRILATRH

Structure (SMILES): C[C@@H](Oc1cc(-c2cnn(C3CCNCC3)c2)cnc1N)c1c(Cl)ccc(F)c1Cl [Crizotinib, crizotinib]
- Cmax,u [1]: 84.8 nM
- Ctrough,u [1]: 65.8 nM
- Prediction of SCr increase, Cmax,u [2]: 14.5 ± 4.6%
- Prediction of SCr increase, Cmax,u ([2]; listed as crizotinib): 14.5%
- Prediction of SCr increase, Cmax,u · Kp,uu [2]: 25.3 ± 8.8%
- Prediction of SCr increase, Cmax,u · Kp,uu ([2]; listed as crizotinib): 25.3%
- Prediction of SCr increase, Ctrough,u [2]: 11.7 ± 3.6%
- Prediction of SCr increase, Ctrough,u · Kp,uu [2]: 21.1 ± 7.1%
- Predicted increase of SCr in the clinical context ([2]; summary statement of the prediction): more than 10%
- Ctrough [3]: 708 nM
- fu [4]: 0.093
- Clinically reported eGFR reduction [5]: 23.9%

Structure (SMILES): COc1c(N2CC[C@@H](C3(N)CC3)C2)ccc2c(=O)c(C(=O)O)cn([C@@H]3C[C@@H]3F)c12 [DX-619]
- Reduction of creatinine clearance [6]: up to 51.4%

Structure (SMILES): COc1cc2ncnc(Nc3ccc(F)c(Cl)c3)c2cc1OCCCN1CCOCC1 [Gefitinib, gefitinib]
- Kp uu at 2 h, 1 μM [7]: 2.22 ± 0.05
- Cmax,u [1]: 93.6 nM
- Prediction of SCr increase, Cmax,u [2]: 2.47 ± 1.05%
- t1/2 [3]: 23.8 h
- Cmax [3]: 1040 nM
- fu [4]: 0.09

Structure (SMILES): Cc1ccc(NC(=O)c2ccc(CN3CCN(C)CC3)cc2)cc1Nc1nccc(-c2cccnc2)n1 [Imatinib, imatinib]
- Kp uu at 2 h, 1 μM [7]: 2.39 ± 0.29

Structure (SMILES): CC(=O)[O-].C[n+]1ccc(-c2ccccc2)cc1 [MPP^+, N-methyl-4-phenylpyridinium acetate]
- Uptake of MPP+ by HEK293/MATE2K cells ([8]; HEK293/MATE2K cells): 19.1 μL/mg/1 min
- Uptake of MPP+ by mock cells ([8]; mock cells): 5.76 μL/mg/1 min

Structure (SMILES): Cc1ccc(Nc2nccc(N(C)c3ccc4c(C)n(C)nc4c3)n2)cc1S(N)(=O)=O [Pazopanib, pazopanib]
- IC50 ([9]; [14C]creatinine 2.6 μM, 2 min, 37 °C, pre/co-incubation, unit inferred, read-out: IC50 or Ki, MATE1): 0.47 ± 0.032 µM
- Ctrough/IC50 or Ki, MATE1 ([9]; ratio of trough (unbound) concentration to IC50 or Ki for MATE1): 0.0114
- Inhibition of [14C]creatinine uptake by HEK293/OCT2 cells (in words) ([10]; pazopanib 1, 3, 10, 30 μM, [14C]creatinine 2.6 μM, 1 min): not by pazopanib
- Ctrough/IC50 or Ki, OCT2 ([10]; ratio of trough (unbound) concentration to IC50 or Ki for OCT2): 0.0000386
- Kp uu at 2 h, 1 μM [7]: 2.05 ± 0.14
- Cmax,u [1]: 10.1 nM
- Prediction of SCr increase, Cmax,u [2]: 1.16 ± 0.87%
- Prediction of SCr increase, Cmax,u · Kp,uu [2]: 1.86 ± 0.95%
- Prediction of SCr increase, Ctrough,u [2]: 0.837 ± 0.842%
- Prediction of SCr increase, Ctrough,u · Kp,uu [2]: 1.22 ± 0.87%
- t1/2 [3]: 30.9 h
- Cmax [3]: 95100 nM
- Ctrough [3]: 50600 nM
- fu [4]: 0.000106

Structure (SMILES): CNC(=O)c1cc(Oc2ccc(NC(=O)Nc3ccc(Cl)c(C(F)(F)F)c3)cc2)ccn1 [Sorafenib, sorafenib]
- IC50 ([10]; [14C]creatinine 2.6 μM, 1 min): 40.8 ± 9.3 µM
- Kp uu at 2 h, 1 μM [7]: 2.76 ± 0.27
- Prediction of SCr increase, Cmax,u [2]: 1.47 ± 0.90%
- Prediction of SCr increase, Cmax,u · Kp,uu [2]: 3.10 ± 1.17%
- t1/2 [3]: 28.1 h
- Cmax [3]: 14600 nM
- fu [4]: 0.0029

Structure (SMILES): CCN(CC)CCNC(=O)c1c(C)[nH]c(/C=C2\C(=O)Nc3ccc(F)cc32)c1C [Sunitinib, sunitinib]
- IC50 ([10]; [14C]creatinine 2.6 μM, 1 min): 0.266 ± 0.03 µM
- Kp uu at 2 h, 1 μM [7]: 3.93 ± 0.15
- Cmax,u [1]: 6.8 nM
- Ctrough,u [1]: 4.14 nM
- Prediction of SCr increase, Cmax,u [2]: 1.65 ± 0.92%
- Prediction of SCr increase, Cmax,u · Kp,uu [2]: 2.73 ± 1.10%
- Prediction of SCr increase, Ctrough,u [2]: 1.19 ± 0.87%
- Prediction of SCr increase, Ctrough,u · Kp,uu [2]: 1.86 ± 0.95%
- t1/2 [3]: 40 to 60 h
- Cmax [3]: 136 nM
- Ctrough [3]: 82.9 nM
